In patent publication US9096607B2, “Tumor necrosis factor inhibitors” (THE TRUSTEES OF THE UNIVERSITY OF PENNSYLVANIA, priority 2005, dated 2015):

Test system: collagen induced arthritis
Test: Collagen induced arthritis in mice
Assay type: in vivo, mouse
Conditions: DBA/1 mice
Method: Activity of compound I-9 was studied in a mouse collagen induced arthritis system, which is a model for human rheumatoid arthritis. Six to eight weeks old male DBA/1 mice were immunized by multiple intradermal injections of 100 μg chicken type II collagen (Sigma Chemical Co., St. Louis, Mo.) in 100 μl of 0.1 M acetic acid emulsified in an equal volume of complete Freund's adjuvant and were then challenged with the same antigen preparation i.p. on the 21st day. Animals were injected daily with the compound I-9 at different dosages (2-4 mg/kg/day) beginning on day 21 and animals were examined physically every other day in a blinded manner. In this model, disease typically develops 7-10 days after the second immunization, and the severity of disease can be determined by physical examination, joint histochemistry, or both techniques. […] Male DBA/1 mice (6-8-wk-old) were purchased from Jackson Laboratory (Bar Harbor, Me.) and housed in University of Pennsylvania Animal Care Facilities. Animals were maintained in accordance with guidelines of Institutional Animal Care and Use Committee (IACUC) of the University of Pennsylvania. For CIA induction, mice were immunized by multiple intradermal injections of 100 μg chicken type II collagen (Sigma Chemical Co., St. Louis, Mo.) in 100 μL of 0.1M acetic acid emulsified in an equal volume of complete Freund's adjuvant. Mice were challenged with the same antigen preparation i.p. at the 21st day. Mice were injected daily with the test compound at different dosage (2 and 4 mg/kg of body weight) from day 21. Disease develops 7-10 day after the second immunization. Mice were examined physically every other day in a blind manner. Their paws were scored individually as follows: 0=normal; 1=Erythema and mild swelling confined to the ankle joint or toes; 2=Erythema and mild swelling extending from the ankle to the midfoot or ankle joint; 3=Erythema and moderate swelling extending from the ankle to the metatarsal joints; and 4=Erythema and severe swelling encompass the ankle, foot, and digits. The maximum disease score per foot is 4, and the maximum disease score per mouse is 16. For histological examination of the joint, mice were killed at different time points, and their paws were collected and fixed in 10% formalin. The paws were then decalcified in hydrochloric acid, embedded in paraffin, sectioned, and stained with hematoxylin and eosin (H&E).

CC(=O)Oc1ccc(C(C)(c2ccc(OC(C)=O)cc2)c2ccc(OC(C)=O)cc2)cc1 [Compound I-9, 1,1,1-Tris-(4-acetoxyphenyl)ethane]
clinical symptoms of arthritis (2-4 mg/kg/day daily from day 21, vs untreated or control groups): dose dependent decrease
cartilage destruction (treated): prevented
infiltration, histological analysis of ankle joints (treated): markedly reduced
synovial tissue, histological analysis of ankle joints (treated): less synovial tissue
